Measurements reported in patent US11413278B2, “Compounds and methods for promoting stress resistance” (priority 2015, dated 2022).
Read-outs that look alike come from different tables or passages of the source.

Assays:
[1] = test system: WI-38 cells; assay: CdCl2 (cadmium) resistance assay; assay type: cell-based, human; conditions: for fold induction at 10 µM: Homo sapiens, 12 h, normalized ATP measurement; for Assay 4: H2O2- & Cd-resistant / Assay 2: Cadmium-resistant: YES/NO; for Assay 2: Cadmium-resistant: * indicates partial
How it was run: (§1)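 Resistance to CdCl2 or MMS stress (12 h exposure) was scored in WI-38 fibroblasts pretreated with compound at 0.25–20 μM final, five doses, technical triplicates. MMS plates had compound added 24 h before MMS, after a shift to serum-free DMEM+2% BSA. Significance came from a global variance t-test over two independent runs.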

[2] = test system: C. elegans; assay type: in vivo, Caenorhabditis elegans; conditions: in vivo
How it was run: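 Survival under oxidative stress: 500 μM H2O2 (final) was added to day-4 adults kept in liquid with compounds, FUdR present, 4 wells per molecule and 0.2% DMSO controls, with daily scoring of viability.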

[3] = molecular target: T1, human PARP1 (Homo sapiens, UniProt P09874); assay: PARP inhibitor assay (HT Fluorescent Homogeneous PARP Inhibition Assay Kit); assay type: biochemical; conditions: for L = PARP inhibition: score
T1 construct: purchased Trevigen
T1 sequence (P09874 whole entry): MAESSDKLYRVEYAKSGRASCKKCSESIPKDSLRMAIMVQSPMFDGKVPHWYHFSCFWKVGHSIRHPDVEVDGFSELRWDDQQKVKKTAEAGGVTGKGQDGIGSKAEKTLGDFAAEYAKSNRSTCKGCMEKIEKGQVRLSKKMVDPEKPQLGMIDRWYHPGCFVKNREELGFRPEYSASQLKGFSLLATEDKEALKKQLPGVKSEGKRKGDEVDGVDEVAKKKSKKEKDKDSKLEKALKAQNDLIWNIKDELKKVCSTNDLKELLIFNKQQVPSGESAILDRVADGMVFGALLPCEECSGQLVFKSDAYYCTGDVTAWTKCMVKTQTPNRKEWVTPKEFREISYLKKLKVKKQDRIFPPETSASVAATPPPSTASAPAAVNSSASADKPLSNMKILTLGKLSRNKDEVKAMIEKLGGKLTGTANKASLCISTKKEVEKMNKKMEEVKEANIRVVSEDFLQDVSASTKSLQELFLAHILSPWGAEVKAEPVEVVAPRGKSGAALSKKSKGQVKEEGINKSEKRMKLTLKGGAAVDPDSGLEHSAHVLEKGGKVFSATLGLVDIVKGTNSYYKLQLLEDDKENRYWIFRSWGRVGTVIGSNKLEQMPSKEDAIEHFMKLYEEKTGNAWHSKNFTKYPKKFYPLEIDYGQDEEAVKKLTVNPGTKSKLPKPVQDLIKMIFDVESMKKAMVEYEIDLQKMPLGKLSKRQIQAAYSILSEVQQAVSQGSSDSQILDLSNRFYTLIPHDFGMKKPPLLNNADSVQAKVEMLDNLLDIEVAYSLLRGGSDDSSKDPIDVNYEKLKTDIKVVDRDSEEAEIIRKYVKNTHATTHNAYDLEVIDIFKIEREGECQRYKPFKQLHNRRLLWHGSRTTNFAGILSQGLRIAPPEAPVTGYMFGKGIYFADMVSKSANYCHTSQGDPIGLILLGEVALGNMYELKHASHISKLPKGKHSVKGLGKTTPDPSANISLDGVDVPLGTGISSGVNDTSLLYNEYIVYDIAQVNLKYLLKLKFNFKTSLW
How it was run: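 Compounds (10 μM final) incubated 30 min, room temperature, dark, with human PARP1, nicotinamide adenine dinucleotide and activated DNA. Fluorescent signal generated by 1 hr cycling with diaphorase and resazurin, then reaction stopped.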

[4] = test system: phosphorylated γH2A.X and TP53BP1; assay: DNA damage marker analysis (immuno-staining); conditions: for activity at 10 µM: Homo sapiens, WI-38, 24 h; for P = Potential DNA-damaging / R = Potential DNA damaging: human, 24 h
How it was run: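 Immunofluorescence read-out for phospho-γH2A.X (Ser-139) and phospho-TP53BP1 (Ser-1778), with DAPI nuclear stain and automated imaging at 10×. WI-38 cells (~8,000 per well) were exposed to small molecules for 24 h after 24 h of culture, with doxorubicin (300 nM, 24 h) or H2O2 (700 μM, 3 h) as positive damage controls.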

[5] = test system: WI-38 cells; conditions: for No H2O2 stress treatment, at 10 uM (fold change): normalized ATP measurement; for Assay 1: H2O2-resistant: YES/NO, if NO, possibly due to repeated freezing/thawing of stocks
[6] = test system: WI-38 cells; assay: MMS resistance assay; assay type: cell-based, human; conditions: for fold induction at 10 µM: Homo sapiens, 12 h, normalized ATP measurement; for Assay 3: MMS-resistant / Assay 5: Triple resistant: YES/NO; for Assay 3: MMS-resistant: * indicates partial; for Assay 5: Triple resistant: H2O2, cadmium and MMS
How it was run: as §1

[7] = Exp. 1, WI-38 cells, read-out: Exp. 1, under Cd2Cl2 stress treatment, at 10 uM (fold change)
[8] = Exp. 2, WI-38 cells, read-out: Exp. 2, under Cd2Cl2 stress treatment, at 10 uM (fold change)
[9] = WI-38 cells, 10 μM, both stressors
[10] = score in summary of 38 core set hits
[11] = read-out: Experiment 1, H2A.X-P DNA damage foci staining (no H2O2 stress treatment), at 10 uM
[12] = read-out: Experiment 2, H2A.X-P DNA damage foci staining (no H2O2 stress treatment), at 10 uM
[13] = read-out: Experiment 2, H2A.X-P DNA damage foci staining (under H2O2 stress treatment), at 10 uM
[14] = read-out: Experiment 2, TP53BP1-P DNA damage foci staining (no H2O2 stress treatment), at 10 uM
[15] = read-out: Experiment 2, TP53BP1-P DNA damage foci staining (under H2O2 stress treatment), at 10 uM
[16] = WI-38 cells, 10 μM, (*) = compromised ability to protect cells from H2O2, could be due to stability issue
[17] = asterisks indicate the loss of the ability to protect cells from H2O2 over time
[18] = derived from dose response curves, 0.6-20 uM, H2O2-resistance of WI-38 cells
[19] = read-out: Est. ED50, dose response 0.6-20 μM, H2O2-resistance
[20] = Exp. 1, WI-38 cells, read-out: Exp. 1, under MMS stress treatment, at 10 uM (fold change)
[21] = Exp. 2, WI-38 cells, read-out: Exp. 2, under MMS stress treatment, at 10 uM (fold change)

COC(=O)CCc1sc2c(c1[N+](=O)[O-])NC(=O)CCC2 [O20]
CdCl2-resistant [1]: YES | H2O2- & CdCl2-resistant [1]: YES | fold induction at 10 µM [1, 7]: 6.37 | fold induction at 10 µM [1, 8]: 4 | CdCl2-resistant ([1]; WI-38 cells, 10 μM): YES | H2O2- & CdCl2-resistant [1, 9]: YES | Assay 4: H2O2- & Cd-resistant [1]: YES | Assay 2: Cadmium-resistant [1]: YES | A = Cadmium resistant [1, 10]: 1 | A = Cadmium resistant ([1]; summary score): 1 | C = H2O2- & Cd-resistant ([1]; summary score): 1 | L = H2O2-resistance in worms [2]: 0 | N = H2O2-resistance in woms [2]: 0 | L = PARP inhibition [3]: 0 | activity at 10 µM [4, 11]: 115% | activity at 10 µM [4, 12]: 130% | activity at 10 µM [4, 13]: 178% | activity at 10 µM [4, 14]: 108% | activity at 10 µM [4, 15]: 544% | P = Potential DNA-damaging [4]: 0 | R = Potential DNA damaging [4]: 0 | H2O2-resistant [5, 16]: YES | No H2O2 stress treatment, at 10 uM (fold change) ([5]; WI-38 cells): 1.12 fold change | Assay 1: H2O2-resistant [5]: YES | H2O2-resistant [5, 17]: YES | EC50 [5, 18]: 12.9 µM | EC50 [5, 19]: 12.9 µM | fold induction at 10 µM [6, 20]: 2.17 | fold induction at 10 µM [6, 21]: 1.46 | Assay 3: MMS-resistant [6]: YES | Assay 5: Triple resistant [6]: YES | B = MMS resistant [6, 10]: 0 | B = MMS resistant ([6]; summary score): 1 | D = Triple resistant ([6]; summary score): 2

O=C(/C=C/c1cn(-c2ccccc2)nc1-c1cccnc1)c1ccccc1 [Gr-6B]
CdCl2-resistant [1]: YES | H2O2- & CdCl2-resistant [1]: YES | fold induction at 10 µM [1, 7]: 5.07 | fold induction at 10 µM [1, 8]: 2.65 | CdCl2-resistant ([1]; WI-38 cells, 10 μM): YES | H2O2- & CdCl2-resistant [1, 9]: YES | Assay 4: H2O2- & Cd-resistant [1]: YES | Assay 2: Cadmium-resistant [1]: YES | A = Cadmium resistant [1, 10]: 1 | A = Cadmium resistant ([1]; summary score): 1 | C = H2O2- & Cd-resistant ([1]; summary score): 1 | L = H2O2-resistance in worms [2]: 0 | N = H2O2-resistance in woms [2]: 0 | L = PARP inhibition [3]: 0 | activity at 10 µM [4, 11]: 93.4% | activity at 10 µM [4, 12]: 112% | activity at 10 µM [4, 13]: 136% | activity at 10 µM [4, 14]: 176% | activity at 10 µM [4, 15]: 272% | P = Potential DNA-damaging [4]: 0 | R = Potential DNA damaging [4]: 0 | H2O2-resistant [5, 16]: YES | No H2O2 stress treatment, at 10 uM (fold change) ([5]; WI-38 cells): 1.10 fold change | Assay 1: H2O2-resistant [5]: YES | H2O2-resistant [5, 17]: YES | EC50 [5, 19]: 45.1 µM | fold induction at 10 µM [6, 20]: 2.12 | fold induction at 10 µM [6, 21]: 1.22 | Assay 3: MMS-resistant [6]: YES | Assay 5: Triple resistant [6]: YES | B = MMS resistant [6, 10]: 0 | B = MMS resistant ([6]; summary score): 1 | D = Triple resistant ([6]; summary score): 2

CCCC(=O)Nc1ccc(-c2cn3cccc(C)c3n2)cc1 [O12]
CdCl2-resistant [1]: YES | H2O2- & CdCl2-resistant [1]: YES | fold induction at 10 µM [1, 7]: 1.36 | fold induction at 10 µM [1, 8]: 1.59 | CdCl2-resistant ([1]; WI-38 cells, 10 μM): YES | H2O2- & CdCl2-resistant [1, 9]: YES | Assay 2: Cadmium-resistant [1]: NO * | A = Cadmium resistant [1, 10]: 1 | A = Cadmium resistant ([1]; summary score): 0 | C = H2O2- & Cd-resistant ([1]; summary score): 0 | H2O2-resistance assay, 1st experiment [2]: YES; | L = H2O2-resistance in worms [2]: 0 | N = H2O2-resistance in woms [2]: 0 | Inhibition of PARP1 ([3]; 10 μM, in vitro): inhibitors of PARP1 | L = PARP inhibition [3]: 0 | activity at 10 µM [4, 11]: 106% | activity at 10 µM [4, 12]: 88% | activity at 10 µM [4, 13]: 113% | activity at 10 µM [4, 14]: 142% | activity at 10 µM [4, 15]: 523% | P = Potential DNA-damaging [4]: 0 | R = Potential DNA damaging [4]: 0 | H2O2-resistant [5, 16]: YES | No H2O2 stress treatment, at 10 uM (fold change) ([5]; WI-38 cells): 1.01 fold change | H2O2-resistant [5, 17]: YES | EC50 [5, 18]: 1 µM | EC50 [5, 19]: 1 µM | fold induction at 10 µM [6, 20]: 0.78 | fold induction at 10 µM [6, 21]: 2 | B = MMS resistant [6, 10]: 0 | B = MMS resistant ([6]; summary score): 0 | D = Triple resistant ([6]; summary score): 0

O=[N+]([O-])c1ccccc1S(=O)(=O)Nc1cccc2cccnc12 [Gr-3A]
CdCl2-resistant [1]: YES | H2O2- & CdCl2-resistant [1]: YES | fold induction at 10 µM [1, 7]: 1.93 | fold induction at 10 µM [1, 8]: 1.64 | CdCl2-resistant ([1]; WI-38 cells, 10 μM): YES | H2O2- & CdCl2-resistant [1, 9]: YES | Assay 4: H2O2- & Cd-resistant [1]: YES | Assay 2: Cadmium-resistant [1]: YES | A = Cadmium resistant [1, 10]: 1 | A = Cadmium resistant ([1]; summary score): 1 | C = H2O2- & Cd-resistant ([1]; summary score): 1 | L = H2O2-resistance in worms [2]: 0 | N = H2O2-resistance in woms [2]: 0 | L = PARP inhibition [3]: 0 | activity at 10 µM [4, 11]: 139% | activity at 10 µM [4, 12]: 338% | activity at 10 µM [4, 13]: 143% | activity at 10 µM [4, 14]: 334% | activity at 10 µM [4, 15]: 66.1% | P = Potential DNA-damaging [4]: 1 | R = Potential DNA damaging [4]: 1 | H2O2-resistant [5, 16]: YES | No H2O2 stress treatment, at 10 uM (fold change) ([5]; WI-38 cells): 0.98 fold change | Assay 1: H2O2-resistant [5]: YES | H2O2-resistant [5, 17]: YES | EC50 [5, 18]: 11.2 µM | EC50 [5, 19]: 4.21 µM | fold induction at 10 µM [6, 20]: 1 | fold induction at 10 µM [6, 21]: 0.86 | Assay 3: MMS-resistant [6]: YES | Assay 5: Triple resistant [6]: YES | B = MMS resistant [6, 10]: 0 | B = MMS resistant ([6]; summary score): 1 | D = Triple resistant ([6]; summary score): 2
